Patent US20240228542A1, “LYTIC DOMAIN FUSION CONSTRUCTS, CHECKPOINT INHIBITORS, AND METHODS OF MAKING AND USING SAME” (A28 Therapeutics Inc., priority 2020, published 2024)
Entries after “also recorded” stand apart in the source; their conditions may differ.

Tests used:
OVCAR-3 xenograft = assay: OVCAR-3 ovarian cancer xenograft; type: in vivo, Nu/Nu mice; conditions: for tumor volume: CLIP71 2 mg/kg, cisplatinum 10 mg/kg
Procedure: In brief, Nu/Nu female mice, inbred strain, age 5 weeks (Harlan-Sprague Dawley) were injected subcutaneously with a NIH:OVCAR-3 cells/Matrigel suspension (4.6×10^6 cells/mouse). Treatment was started on day 33 after tumor cell injection when the tumors were established and continued on days 41 and 47. The doses for the 3 weekly injections were 0.02, 0.2 and 2 mg/kg body weight, given as a single bolus intravenous injection via lateral tail vein administered once a week for three weeks on days 33, 41 and 47. Necropsies were conducted on day 52. Data are presented as mean […]SEM. Arrows show dosing.
A group of 9 tumor bearing mice was sacrificed on day 33 and served as baseline group. All mice were necropsied 51-52 days after tumor cell injection. Tumor volumes and bodyweights were recorded twice weekly during the study, as well as overall veterinarian examination of mice was conducted.
Primary tumors, liver, kidney, pancreas, heart, lung, and spleen were collected, fixed in formalin and prepared for histological evaluation. Tumor weights were measured at necropsy, part of the tumors were frozen at −80° C. for LH/CG and LHRH receptor assay determination.
As a biomarker for drug activity, CA 125 was determined in serum, collected from each individual mouse at necropsy using a Enzyme Linked Immunoassay for quantitative determination of ovarian cancer antigen CA125 (Assay kit Genway, Biotech, Inc. San Diego, CA, Catalog #40-052-115009, #BC-1013 according to the manufacturer).
LHRH receptor levels were assessed from formalin fixed tumors. Quantitative immunoperoxidase image analysis was conducted with the Ventana Image Analysis System (VIAS) adjunctive computer assisted image analysis system functionally connected to an interactive microscope (Axio Imager). The quantitative analysis was conducted with the program for quantification of Her2/neu receptor that included morphometric and colorimetric analysis. Receptor status results were reported as percentage of cells showing positive staining of the LHRH receptors under the following criteria: 0 non-immunoreactive, 1+: 1-25% positive, 2+: 26-50% positive, 3+: 51-75% positive cells.

MDA-MB-231 = assay: Cytotoxicity in MDA-MB-231 breast cancer cells; type: cell-based; conditions: MDA-MB-231 breast cancer cell line; read-out: IC50 in Human Cancer Cell Lines
Procedure: (§1) MDA-MB-435S.luc cells were grown in Leibovitz's L 15 medium, 10% fetal bovine serum, 0.01 mg/ml bovine insulin, 100 IU/ml penicillin, 100 microg/ml streptomycin. The cells were cultured in tight closed flasks. The incubations were conducted using 96 well plates at 10,000 cells per well. Cells were typically seeded into 96 well plates and media was replaced after 48 hours of incubation. Each assay was conducted at increasing concentrations of 0, 0.001, 0.01, 0.05, 0.1, 0.5, 1, 2, 5, 10 and 100 micromolar doses of lytic peptide-binding domain conjugate. Each lytic peptide-binding domain conjugate provided in lyophilized form and was freshly dissolved in saline and added to cells. The duration of incubation was typically 24 h, and cell viability assays were conducted using formazan conversion assays (MTT assay). Controls contained saline or 0.1% triton as reference for 0 and 100% cell death, respectively.
(§2) To ascertain the IC50 of various fusion constructs on different human cancer cell lines compared to cisplatinum, IC50 of fusion constructs were evaluated as in Table 3.

OVCAR-3 = assay: Cytotoxicity in OVCAR-3 ovarian cancer cells; type: cell-based; conditions: OVCAR-3 ovarian cancer cell line; read-out: IC50 in Human Cancer Cell Lines
Procedure: as §1, §2

SKOV-3 = assay: Cytotoxicity in SKOV-3 ovarian cancer cells; type: cell-based; conditions: SKOV-3 ovarian cancer cell line; read-out: IC50 in Human Cancer Cell Lines
Procedure: as §1, §2

IG10 = assay: Cytotoxicity in IG10 murine ovarian cancer cells (24 h); type: cell-based; conditions: IG10, 24 h; read-out: In vitro activity (IC50)
Procedure: Murine ovarian cancer cell lines (ID8, IG10, IF5, and 2Cl2) were grown in RPMI 1640 media with 10% Fetal Bovine Serum. Cells were typically seeded (3000 cells per well) into 96 well plates and media was replaced after 48 hours of incubation. […] Phor18-LHRH was provided in lyophilized form was dissolved in saline and added to cells. The duration of incubation was 24 h at 37° C. Cell viability was assessed after 24 hours using a luminometric assays (Promega, CellTiter-0Glo 2.0, G9243). Controls contained saline or 0.1% triton as reference for 0 and 100% cell death, respectively.
Data were processed and analyzed using GraphPad Prism version 7.00 for Windows (GraphPad Software, San Diego California). Statistical analysis for significance was determined by a two-tailed Student's T-test. Each study was conducted to achieve an […] of at least 6.
In vitro activities were expressed as IC50 values for each cell line, time point and compound tested that were calculated using the Hill equation (Graph Pad Prizm software).

242 = assay: Cytotoxicity in cell line 242 (Table 7); type: cell-based, murine; conditions: 242, 24 h; read-out: In vitro activity (IC50)
[1] = tested on: ID8 murine ovarian carcinoma; assay: Orthotopic ID8 murine ovarian carcinoma syngeneic model; type: in vivo, C57BL/6 mice
Procedure: Ovarian Cancer Orthotopic Syngeneic Mouse model—Eight-to 12-week-old female C57BL/6 mice were purchased from Taconic Farms, ID8 or IG10 cells at a concentration off 2×10^6 cells/0.2 mL per mouse were injected into the intraperitoneal cavity of C57BL/6. All mouse studies were approved by the Institutional Animal Care and Use Committee and were cared for in accordance with guidelines set forth by the American Association for Accreditation of Laboratory Animals. After cancer cell injection, mice were randomly divided into four treatment groups: 1) untreated control, 2) PD-L1 antibody (200 μg/kg intraperitoneally twice a week), 3) EP-100 (0.2 mg/kg intravenously twice a week) and 4) PD-L1 antibody plus EP-100. Treatment was initiated ten days after cancer cell injection into the intraperitoneal cavity.
C57BL/6 female mice were injected orthotopically with luciferase labeled ID8 (ID8-L) murine ovarian cancer cell line (1×10^6 cells). Mice were monitored for tumor take using a luminescent imaging system. Treatments started on day 7 after tumor cell injection and continued on days 9, 12, 16, 19, 22, and 26 (FIG. 17A). […] Each treatment and control group consisted of 10 mice. At necropsy on day 28, ascites fluids were removed and measured, and tumors were removed and weighed.
Significance between treatment groups was assessed using Wilcoxon signed Rank test analysis and ANOVA.

Row | Sequence | tumor weights (OVCAR-3 xenograft; OVCAR-3 xenograft at necropsy) | tumor volume (OVCAR-3 xenograft; OVCAR-3 xenograft) | IC50 (MDA-MB-231) | IC50 (OVCAR-3) | IC50 (SKOV-3) | lowest concentration with tumor volume reduction compared to baseline (OVCAR-3 xenograft; 42 days after tumor cell injection, p<0.001) | Median Tumor Weight vs Baseline p < 0.05 (doses) (OVCAR-3 xenograft; OVCAR-3, 1 × 3 wk, 20 d) | Remarks / histology of treated tumors (OVCAR-3 xenograft; OVCAR-3 xenograft) | CA125 secretion (serum) (OVCAR-3 xenograft; greatest at 0.2 and 2 mg/kg (p<0.0002 vs saline)) | reduction of LHRH receptor levels (OVCAR-3 xenograft; treated tumors, immunoperoxidase image analysis) | IC50 (IG10) | IC50 242 | reduction of ascites ([1]; ID8) | reduction of live tumor size ([1]; ID8) | reduction of tumor weights ([1]; ID8) | relative reduction of ascites volumes ([1]; ID8) | luminescence counts of tumor at the end of the study ([1]; ID8-luciferase, mean±SD, start 9.2±1.2×10^4) | tumor weights at necropsy ([1]; ID8, Mean±SEM, N=10, controls 1.06±0.08 g) | ascites volumes ([1]; ID8, Mean±SEM, N=10, vehicle 12.26±0.6 ml)
1 | KFAKFAKKFAKFAKKFAK [Phor18, reference compound] | not effective in reducing tumor weights | tumor growth was observed; also recorded: no reduction in tumor volume |  |  |  |  |  |  |  |  |  |  |  |  |  |  |  |  | 
2 | KFAKFAKKFAKFAKKFAKQHWSYGLRPG [Phor18-LHRH] |  | Tumor volumes decreased | 5.5 ± 1.2 µM | 3000 nM | 11.8 ± 0.3 µM | 0.2 mg/kg bodyweight | 0.2 mg/kg | significant necrosis | reduced | 1-2 score points | 1030 nM | 1380 nM | 1.5 fold | 2.1 fold | 3 fold | 35.5% | 88.6±21.5 ×10^4 | 0.49 ± 0.07 g | 8.0 ± 0.7 mL
